Source: PubChem BioAssay (NCI)
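Step 1: Grow cells in 96-well plates. Step 2: Expose to compound for 48 hours at 5 concentrations. Step 3: Interpolate endpoints linearly; if unreached, use highest concentration. TGI: concentration producing complete growth inhibition.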

What was measured:
Assay in all cases: NCI-60 cell line screen, 48 h
[1] = tested on: HOP-62 NSCLC
[2] = tested on: HOP-92 NSCLC
[3] = tested on: HS 578T breast
[4] = tested on: KM12 colon
[5] = tested on: NCI-H226 lung
[6] = tested on: NCI-H23 lung
[7] = tested on: NCI-H460 lung
[8] = tested on: OVCAR-3 ovarian
[9] = tested on: OVCAR-8 ovarian
[10] = tested on: PC-3 prostate
[11] = tested on: SK-MEL-28 melanoma
[12] = tested on: SN12C renal
[13] = tested on: SW-620 colon
[14] = tested on: U251 CNS
[15] = tested on: UACC-257 melanoma
[16] = tested on: UO-31 renal
[17] = tested on: EKVX NSCLC
[18] = tested on: SNB-75 CNS
[19] = tested on: UACC-62 melanoma

| Structure (SMILES) | TGI [1] | TGI [2] | TGI [3] | TGI [4] | TGI [5] | TGI [6] | TGI [7] | TGI [8] | TGI [9] | TGI [10] | TGI [11] | TGI [12] | TGI [13] | TGI [14] | TGI [15] | TGI [16] | TGI [17] | TGI [18] | TGI [19] |
| --- | --- | --- | --- | --- | --- | --- | --- | --- | --- | --- | --- | --- | --- | --- | --- | --- | --- | --- | --- |
| CCCCCC(=O)CCCCCCCC(O)CC(=O)OCC (configuration not stated) | > 100 µM | > 100 µM | > 100 µM | > 100 µM | > 100 µM | > 100 µM | > 100 µM | > 100 µM | > 100 µM | > 100 µM | > 100 µM | > 100 µM | > 100 µM | > 100 µM | > 100 µM | > 100 µM |  |  |  |
| C=C(C(=O)O)[C@@H]1C[C@@H](OC(C)=O)[C@]2(C)CC/C=C(\C)CCC[C@H](C)[C@H](O)[C@@H]1O2 |  | > 100 µM | > 100 µM | > 100 µM | > 100 µM |  | > 100 µM | > 100 µM | > 100 µM | > 100 µM | > 100 µM | > 100 µM | > 100 µM | > 100 µM | > 100 µM |  | > 100 µM | > 100 µM | > 100 µM |
| CC(C)N(C(=O)C1(O)c2ccccc2C=Cc2ccccc21)C(C)C | 35.6 µM |  | 68.8 µM | 49.7 µM | 35.8 µM | 34.2 µM |  | 31.3 µM | 30.5 µM | 28.9 µM | 31.4 µM | 31.4 µM | 31.3 µM | 30.5 µM |  | 40.1 µM | 32.5 µM |  | 29.5 µM |
| Cc1ccccc1N/C(=C(/C(Cl)=C(Cl)Cl)[N+](=O)[O-])n1nnc2ccccc21 | 30.6 µM |  | 27.1 µM | 29.4 µM | 35.3 µM | 33.3 µM | 28.5 µM | 30.8 µM |  | 80.7 µM | 30.9 µM | 31.1 µM | 29.4 µM | 29.9 µM | > 100 µM | 31.8 µM | 40.9 µM | 34.2 µM | 71.9 µM |
| Cc1nc2ccc(NC(=S)Nc3ccccc3)cc2c(=O)n1-c1ccccc1 | > 100 µM |  | > 100 µM | > 100 µM | > 100 µM | > 100 µM | > 100 µM | > 100 µM | > 100 µM | > 100 µM | > 100 µM | > 100 µM | > 100 µM | > 100 µM | > 100 µM | > 100 µM | > 100 µM | > 100 µM | > 100 µM |
| C/C(=N/NC(=S)Nc1ccc(Cl)cc1)c1cccc(/C(C)=N\NC(=S)Nc2ccc(Cl)cc2)n1 | 45 µM | > 100 µM |  | > 100 µM | 47.5 µM | > 100 µM | 56.4 µM | 47.1 µM | 8.69 µM | > 100 µM | 45.6 µM | > 100 µM | > 100 µM | 60.3 µM | 46.8 µM | 53.2 µM | > 100 µM | > 100 µM | 43.1 µM |
| CCOC(=O)c1nc2ccc(C(F)(F)F)cc2[nH]c1=O | > 100 µM | > 100 µM | > 100 µM | > 100 µM | > 100 µM | > 100 µM | > 100 µM | > 100 µM | > 100 µM | > 100 µM | > 100 µM | > 100 µM | > 100 µM | > 100 µM | > 100 µM | > 100 µM |  |  | > 100 µM |
